Source: PubChem BioAssay AID248 (DTP/NCI, 2004)
“And” between values parts separate entries of the source, which are not always exact repeats. Identical values can stand only once. Inconclusive results and toxic doses are left out. Cut-off read from the data, not from the text of the source: active = T/C of 150% or more; inactive = T/C below 125%.

Tested on: L1210 leukemia ip in BDF1 mice, survival T/C
Test: NCI In Vivo Anticancer Drug Screen. Data for tumor model L1210 Leukemia (intraperitoneal) in B6D2F1 (BDF1) mice
Settings: higher = longer survival
Summary of the method: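 Mice bearing the transplanted tumor received compound or vehicle. Survival of the treated group was divided by that of the vehicle-treated control group to give the ratio.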

[1] = endpoint: mean survival time, dose: 12.5 mg/kg/injection, schedule: Q01DX009 (ip), vehicle: saline
[2] = endpoint: mean survival time, dose: 25.0 mg/kg/injection, schedule: Q01DX009 (ip), vehicle: saline
[3] = endpoint: mean survival time, dose: 100.0 mg/kg/injection, schedule: Q01DX001 (ip), vehicle: carboxymethylcellulose (CMC)
[4] = endpoint: mean survival time, dose: 200.0 mg/kg/injection, schedule: Q01DX001 (ip), vehicle: carboxymethylcellulose (CMC)
[5] = endpoint: mean survival time, dose: 400.0 mg/kg/injection, schedule: Q01DX001 (ip), vehicle: carboxymethylcellulose (CMC)
[6] = endpoint: mean survival time, dose: 100.0 mg/kg/injection, schedule: Q04DX003 (ip), vehicle: saline with Tween-80
[7] = endpoint: mean survival time, dose: 200.0 mg/kg/injection, schedule: Q04DX003 (ip), vehicle: saline with Tween-80
[8] = endpoint: mean survival time, dose: 5.0 mg/kg/injection, schedule: Q04DX003 (ip), vehicle: Klucel (hydroxypropylcellulose) (HPC)

Measured: T/C

CCCCCCC(=O)O[C@H]1CC[C@H]2[C@@H]3CCC4=CC(=O)CC[C@]4(C)[C@H]3CC[C@]12C
inactive: endpoint: median survival time, dose: 2.0 mg/kg/injection, schedule: Q04DX024 (ip), vehicle: other 94 % of control | endpoint: median survival time, dose: 4.0 mg/kg/injection, schedule: Q01DX016 (ip), vehicle: other 92 % of control | endpoint: median survival time, dose: 4.0 mg/kg/injection, schedule: Q04DX024 (ip), vehicle: other 94 % of control | endpoint: median survival time, dose: 8.0 mg/kg/injection, schedule: Q01DX008 (ip), vehicle: other 95 % of control | endpoint: median survival time, dose: 8.0 mg/kg/injection, schedule: Q01DX009 (ip), vehicle: other 98 % of control | endpoint: median survival time, dose: 8.0 mg/kg/injection, schedule: Q01DX016 (ip), vehicle: other 92 % of control | endpoint: median survival time, dose: 8.0 mg/kg/injection, schedule: Q04DX024 (ip), vehicle: other 91 % of control | endpoint: median survival time, dose: 16.0 mg/kg/injection, schedule: Q01DX008 (ip), vehicle: other 95 % of control | endpoint: median survival time, dose: 16.0 mg/kg/injection, schedule: Q01DX009 (ip), vehicle: other 97 % of control | endpoint: median survival time, dose: 16.0 mg/kg/injection, schedule: Q01DX016 (ip), vehicle: other 90 % of control | endpoint: median survival time, dose: 16.0 mg/kg/injection, schedule: Q04DX003 (ip), vehicle: other 98 % of control | endpoint: median survival time, dose: 16.0 mg/kg/injection, schedule: Q04DX024 (ip), vehicle: other 94 % of control | endpoint: median survival time, dose: 32.0 mg/kg/injection, schedule: Q01DX008 (ip), vehicle: other 112 % of control | endpoint: median survival time, dose: 32.0 mg/kg/injection, schedule: Q01DX009 (ip), vehicle: other 111 % of control | endpoint: median survival time, dose: 32.0 mg/kg/injection, schedule: Q01DX016 (ip), vehicle: other 95 % of control | endpoint: median survival time, dose: 32.0 mg/kg/injection, schedule: Q04DX003 (ip), vehicle: other 100 % of control | endpoint: median survival time, dose: 32.0 mg/kg/injection, schedule: Q04DX024 (ip), vehicle: other 92 % of control | endpoint: median survival time, dose: 32.0 mg/kg/injection, schedule: Q08DX002 (ip), vehicle: other 102 % of control | endpoint: median survival time, dose: 64.0 mg/kg/injection, schedule: Q01DX001 (ip), vehicle: other 98 % of control | endpoint: median survival time, dose: 64.0 mg/kg/injection, schedule: Q01DX008 (ip), vehicle: other 91 % of control | endpoint: median survival time, dose: 64.0 mg/kg/injection, schedule: Q01DX009 (ip), vehicle: other 92 % of control | endpoint: median survival time, dose: 64.0 mg/kg/injection, schedule: Q01DX016 (ip), vehicle: other 89 % of control | endpoint: median survival time, dose: 64.0 mg/kg/injection, schedule: Q04DX003 (ip), vehicle: other 107 % of control | endpoint: median survival time, dose: 64.0 mg/kg/injection, schedule: Q08DX002 (ip), vehicle: other 98 % of control | endpoint: median survival time, dose: 128.0 mg/kg/injection, schedule: Q01DX001 (ip), vehicle: other 104 % of control | endpoint: median survival time, dose: 128.0 mg/kg/injection, schedule: Q01DX009 (ip), vehicle: other 97 % of control | endpoint: median survival time, dose: 128.0 mg/kg/injection, schedule: Q04DX003 (ip), vehicle: other 101 % of control | endpoint: median survival time, dose: 128.0 mg/kg/injection, schedule: Q08DX002 (ip), vehicle: other 101 % of control | endpoint: median survival time, dose: 256.0 mg/kg/injection, schedule: Q01DX001 (ip), vehicle: other 122 % of control | endpoint: median survival time, dose: 256.0 mg/kg/injection, schedule: Q01DX009 (ip), vehicle: other 106 % of control | endpoint: median survival time, dose: 256.0 mg/kg/injection, schedule: Q04DX003 (ip), vehicle: other 102 % of control | endpoint: median survival time, dose: 256.0 mg/kg/injection, schedule: Q08DX002 (ip), vehicle: other 104 % of control | endpoint: median survival time, dose: 512.0 mg/kg/injection, schedule: Q01DX001 (ip), vehicle: other 101 % of control | endpoint: median survival time, dose: 512.0 mg/kg/injection, schedule: Q08DX002 (ip), vehicle: other 106 % of control

CCCC1CCC(=C2C(=O)CCC2=O)O1 (centres undefined)
inactive: endpoint: mean survival time, dose: 3.13 mg/kg/injection, schedule: Q01DX009 (ip), vehicle: saline 95 % of control | endpoint: mean survival time, dose: 6.25 mg/kg/injection, schedule: Q01DX009 (ip), vehicle: saline 98 % of control | [1] 106 % of control | [2] 104 % of control

CC(C)(C)COC(=O)c1ccccc1
inactive: [3] 102 % of control | [4] 91 % of control | [5] 91 % of control

Cc1ccc(C(=O)CCCCl)cc1C
inactive: [6] 95 % of control | [7] 89 % of control | endpoint: mean survival time, dose: 400.0 mg/kg/injection, schedule: Q04DX003 (ip), vehicle: saline with Tween-80 88 % of control

O=C(NCCCl)Nc1ccncc1
inactive: endpoint: mean survival time, dose: 1.25 mg/kg/injection, schedule: Q01DX009 (ip), vehicle: Klucel (hydroxypropylcellulose) (HPC) 97 % of control | endpoint: mean survival time, dose: 2.5 mg/kg/injection, schedule: Q01DX009 (ip), vehicle: Klucel (hydroxypropylcellulose) (HPC) 88 % of control | endpoint: mean survival time, dose: 2.5 mg/kg/injection, schedule: Q04DX003 (ip), vehicle: Klucel (hydroxypropylcellulose) (HPC) 100 % of control | [8] 103 % of control

CC(C)c1cccc(C(C)C)c1OCCOC(=O)Nc1ccc(F)cc1
inactive: endpoint: mean survival time, dose: 100.0 mg/kg/injection, schedule: Q01DX009 (ip), vehicle: Klucel (hydroxypropylcellulose) (HPC) 101 % of control | endpoint: mean survival time, dose: 200.0 mg/kg/injection, schedule: Q01DX009 (ip), vehicle: Klucel (hydroxypropylcellulose) (HPC) 117 % of control | endpoint: mean survival time, dose: 400.0 mg/kg/injection, schedule: Q01DX009 (ip), vehicle: Klucel (hydroxypropylcellulose) (HPC) 109 % of control

CCCCSP(=S)(Cc1ccccc1)SCCCC
inactive: endpoint: mean survival time, dose: 100.0 mg/kg/injection, schedule: Q04DX003 (ip), vehicle: Klucel (hydroxypropylcellulose) (HPC) 95 % of control | endpoint: mean survival time, dose: 200.0 mg/kg/injection, schedule: Q04DX003 (ip), vehicle: Klucel (hydroxypropylcellulose) (HPC) 93 % of control

O=C(O)c1c(O)cc(O)cc1O
inactive: [6] 95 % of control | [7] 95 % of control

COc1cc(N(CCCl)CCCl)c(OC)cc1/C=N\Nc1nncn1N
inactive: endpoint: mean survival time, dose: 1.2 mg/kg/injection, schedule: Q01DX015 (ip), vehicle: carboxymethylcellulose (CMC) 109 % of control | endpoint: mean survival time, dose: 1.4 mg/kg/injection, schedule: Q01DX015 (ip), vehicle: carboxymethylcellulose (CMC) 105 % of control | endpoint: mean survival time, dose: 2.2 mg/kg/injection, schedule: Q01DX015 (ip), vehicle: carboxymethylcellulose (CMC) 107 % of control | endpoint: mean survival time, dose: 2.5 mg/kg/injection, schedule: Q01DX015 (ip), vehicle: carboxymethylcellulose (CMC) 109 % of control | endpoint: mean survival time, dose: 3.3 mg/kg/injection, schedule: Q01DX015 (ip), vehicle: carboxymethylcellulose (CMC) 110 % of control | endpoint: mean survival time, dose: 15.0 mg/kg/injection, schedule: Q01DX015 (ip), vehicle: carboxymethylcellulose (CMC) 96 % of control and 103 % of control | endpoint: mean survival time, dose: 33.0 mg/kg/injection, schedule: Q01DX001 (ip), vehicle: carboxymethylcellulose (CMC) 124 % of control | [3] 105 % of control

CC(=O)C(Cl)C(O)(C(F)(F)F)C(F)(F)F (centres undefined)
inactive: [1] 96 % of control | [2] 100 % of control | endpoint: mean survival time, dose: 50.0 mg/kg/injection, schedule: Q01DX009 (ip), vehicle: saline 110 % of control | [6] 95 % of control | [7] 104 % of control

CCCCCCCCCCCCCCCCCCSCCOCCSCCCCCCCCCCCCCCCCCC
inactive: endpoint: mean survival time, dose: 100.0 mg/kg/injection, schedule: Q01DX001 (ip), vehicle: Klucel (hydroxypropylcellulose) (HPC) 87 % of control | endpoint: mean survival time, dose: 400.0 mg/kg/injection, schedule: Q01DX001 (ip), vehicle: Klucel (hydroxypropylcellulose) (HPC) 88 % of control

CCc1c(C)nc2[nH]ncn2c1=O
inactive: endpoint: mean survival time, dose: 75.0 mg/kg/injection, schedule: Q01DX001 (ip), vehicle: other 96 % of control | endpoint: mean survival time, dose: 150.0 mg/kg/injection, schedule: Q01DX001 (ip), vehicle: other 97 % of control | endpoint: mean survival time, dose: 300.0 mg/kg/injection, schedule: Q01DX001 (ip), vehicle: other 93 % of control

O=C(NCCNC(=O)c1ccncc1)c1ccccc1
inactive: [3] 93 % of control | [4] 104 % of control | [5] 98 % of control

C/C(=N\NC(N)=S)c1ccccc1
inactive: endpoint: mean survival time, dose: 5.0 mg/kg/injection, schedule: Q01DX009 (ip), vehicle: Klucel (hydroxypropylcellulose) (HPC) 97 % of control | [8] 97 % of control | endpoint: mean survival time, dose: 10.0 mg/kg/injection, schedule: Q01DX009 (ip), vehicle: Klucel (hydroxypropylcellulose) (HPC) 110 % of control | endpoint: mean survival time, dose: 10.0 mg/kg/injection, schedule: Q04DX003 (ip), vehicle: Klucel (hydroxypropylcellulose) (HPC) 103 % of control | endpoint: mean survival time, dose: 20.0 mg/kg/injection, schedule: Q01DX009 (ip), vehicle: Klucel (hydroxypropylcellulose) (HPC) 105 % of control | endpoint: mean survival time, dose: 20.0 mg/kg/injection, schedule: Q04DX003 (ip), vehicle: Klucel (hydroxypropylcellulose) (HPC) 98 % of control and 117 % of control | endpoint: mean survival time, dose: 30.0 mg/kg/injection, schedule: Q04DX003 (ip), vehicle: Klucel (hydroxypropylcellulose) (HPC) 95 % of control | endpoint: mean survival time, dose: 40.0 mg/kg/injection, schedule: Q04DX003 (ip), vehicle: Klucel (hydroxypropylcellulose) (HPC) 120 % of control
